Test results from US20080108686A1, “N-(Ortho-Phenyl)-1-Methyl-3-Difluoromethylpyrazole-4-Carboxanilides And Their Use As Fungicides” (BASF Aktiengesellschaft, priority 2004, published 2008).

Key:
Puccinia recondita [1] = test: Comparative Test 1: curative activity against brown rust of wheat; type: in vivo; conditions: curative spray 1 day after inoculation, wheat cultivar Kanzler, assessed after 7 days, comparison with Comp. 35 of EP-A 0 589301, untreated 90%
Description: (§1) The active compounds, separately or jointly, were prepared as a stock solution comprising 25 mg of active compound which was made up to 10 ml using a mixture of acetone and/or DMSO and the emulsifier Uniperol® EL (welting agent having an emulsifying and dispersing action based on ethoxylated alkylphenols) in a ratio by volume of solvent/emulsifier of 99:1. The mixture was then made up to 100 ml with water. This stock solution was diluted with the solvent/emulsifier/water mixture described to give the concentration of active compound stated below. Alternatively, the active compounds were employed as a commercial finished formulation and diluted with water to the stated concentration of active compound.
(§2) Curative Activity Against Brown Rust of Wheat Caused by Puccinia recondita
Comp. 35 of EP-A 0 589301 was compared to the compounds 67.1-67.14 according to the invention of table 67. Leaves of potted wheat seedlings of the cultivar “Kanzler” were inoculated with a spore suspension of brown rust (Puccinia recondita). The pots were then placed into a chamber with high atmospheric humidity (90-95%) at 20-22° C. for 24 hours. During this time, the spores germinated and the germ tubes penetrated into the leaf tissue. The next day, the infected plants were sprayed to runoff point with an aqueous suspension having the concentration of active compound stated below. The suspension or emulsion was prepared as described above. After the spray coating had dried on, the test plants were cultivated in a greenhouse at temperatures between 20 and 22° C. and at 65 to 70% relative atmospheric humidity for 7 days. The extent of the rust fungus development on the leaves was then determined.

Puccinia recondita [2] = test: Use Example 1: curative activity against brown rust of wheat; type: in vivo; conditions: curative spray 1 day after inoculation, wheat cultivar Kanzler, assessed after 7 days, untreated 90%
Description: as §1, §2
Leaves of polted wheat seedlings of the cultivar “Kanzler” were inoculated with a spore suspension of brown rust (Puccinia recondita). The pots were then placed into a chamber with high atmospheric humidity (90-95%) at 20-22° C. for 24 hours. During this time, the spores germinated and the germ tubes penetrated into the leaf tissue. The next day, the infected plants were sprayed to runoff point with an aqueous suspension having the concentration of active compound stated below. The suspension or emulsion was prepared as described above. After the spray coating had dried on, the test plants were cultivated in a greenhouse at temperatures between 20 and 22° C. and at 65 to 70% relative atmospheric humidity for 7 days. The extent of the rust fungus development on the leaves was then determined.

Botrytis cinerea = test: Use Example 2a: activity against gray mold on bell pepper leaves, protective application; type: in vivo; conditions: protective spray 1 day before inoculation, bell pepper seedlings, assessed after 5 days, untreated 90%
Description: as §1
Activity against gray mold on bell pepper leaves caused by Botrytis cinerea, protective application Bell pepper seedlings of the cultivar “Neusiedler Ideal Elite” were, after 2-3 leaves were well developed, sprayed to runoff point with an aqueous suspension having the concentration of active compound stated below. The next day, the treated plants were inoculated with a spore suspension of Botrytis cinerea which comprised 1.7×10^6 spores/ml in a 2% strength aqueous biomalt solution. The test plants were then placed into a dark climatized chamber at 22-24° C. and high atmospheric humidity. After 5 days, the extent of the fungal infection on the leaves could be determined visually in %.

Leptosphaeria nodorum = test: Comparative Test 2: activity against leaf blotch on wheat; type: in vivo; conditions: protective spray 1 day before inoculation, wheat cultivar Kanzler, assessed after 8 days, untreated 80%
Description: as §1
Activity Against Leaf Blotch on Wheat Caused by Leptosphaeria nodorum
Comp. 35 of EP-A 0 589301 was compared to the compounds 67.1-67.14 according to the invention of table 67. Pots of wheat plants of the cultivar “Kanzler” was sprayed to runoff point with an aqueous suspension having the concentration of active compound stated below. The next day, the pots were inoculated with an aqueous spore suspension of Leptosphaeria nodorum (syn. Stagonospora nodorum, Septoria nodorum). The plants were then placed into a chamber at 20° C. and maximum atmospheric humidity. After 8 days, the leaf blotch on the untreated but infected control plants had developed to such an extent that the infection could be determined visually in %.

Pyrenophora teres = test: Use Example 2b: activity against net blotch of barley, 1 day protective application; type: in vivo; conditions: protective spray 24 hours before inoculation, barley seedlings, assessed after 6 days, untreated 90%
Description: as §1
Activity Against Net Blotch of Barley Caused byPyrenophora teres, 1 day Protective Application
Leaves of potted barley seedlings were sprayed to runoff point with an aqueous suspension having the concentration of active compound stated below. 24 hours after the spray coating had dried on, the test plants were inoculated with an aqueous spore suspension of Pyrenophora [syn. Drechslera] teres, the net blotch pathogen. The test plants were then placed into a greenhouse at temperatures between 20 and 24° C. and 95 to 100% relative atmospheric humidity. After 6 days, the extent of the development of the disease was determined visually in % infection of the total leaf area.

Row | Compound | Infection at PUCCRT K1 at 250 ppm (%) (Puccinia recondita [1]) | Infection at PUCCRT K1 at 250 ppm (%) (Puccinia recondita [2]) | Infection at BOTRCI P1 at 250 ppm (%) (Botrytis cinerea) | Infection at LEPTNO P1 at 250 ppm (%) (Leptosphaeria nodorum) | melting point [°C] | Infection at PYRNTE P1 at 250 ppm (%) (Pyrenophora teres)
1 | Cn1cc(C(=O)Nc2ccccc2-c2ccc(F)c(Cl)c2)c(C(F)F)n1 [Compound 67.2] | 0 | 0 | 0 | 3 | – | –
2 | Cn1cc(C(=O)Nc2ccccc2-c2cc(F)ccc2F)c(C(F)F)n1 [Compound 67.6] | 0 | 0 | 10 | 3 | – | –
3 | Cn1cc(C(=O)Nc2ccccc2-c2ccc(Cl)cc2Cl)c(C(F)F)n1 [Compound 67.5] | 0 | 0 | – | 15 | – | –
4 | Cc1cc(F)ccc1-c1ccccc1NC(=O)c1cn(C)nc1C(F)F [Compound 67.10] | 0 | 0 | 0 | 15 | – | –
5 | Cc1cc(-c2ccccc2NC(=O)c2cn(C)nc2C(F)F)ccc1Cl [Compound 67.9] | 3 | 3 | 0 | – | – | –
6 | Cn1cc(C(=O)Nc2ccccc2-c2ccc(Cl)c(F)c2)c(C(F)F)n1 [Compound 67.12] | 0 | 0 | 7 | 3 | – | –
7 | Cn1cc(C(=O)Nc2ccccc2-c2ccc(Cl)c(Cl)c2)c(C(F)F)n1 [Compound 67.4, 3-difluoromethyl-1-methyl-N-(ortho-(3,4-dichlorophenyl)phenyl)-pyrazole-4-carboxamide] | 0 | 0 | 0 | 3 | 129 to 130 | –
8 | Cn1cc(C(=O)Nc2ccccc2-c2ccc(Cl)cc2F)c(C(F)F)n1 [Compound 67.7] | 0 | 0 | – | 0 | – | 5
9 | Cc1cc(Cl)ccc1-c1ccccc1NC(=O)c1cn(C)nc1C(F)F [Compound 67.8] | 0 | 0 | 0 | – | – | –
10 | COc1ccc(-c2ccccc2NC(=O)c2cn(C)nc2C(F)F)c(C)c1 [Compound 67.14] | 0 | 0 | – | 5 | – | –
11 | Cn1cc(C(=O)Nc2ccccc2-c2cc(Cl)cc(Cl)c2)c(C(F)F)n1 [Compound 67.1] | 0 | 0 | 1 | 25 | – | –
12 | Cc1cc(-c2ccccc2NC(=O)c2cn(C)nc2C(F)F)ccc1F [Compound 67.11] | 0 | 0 | 0 | – | – | –
13 | Cn1cc(C(=O)Nc2ccccc2-c2ccc(F)c(F)c2)c(C(F)F)n1 [Compound 67.3] | 0 | 0 | 1 | 7 | – | –
14 | Cn1cc(C(=O)Nc2ccccc2-c2ccccc2)c(C(F)F)n1 [reference compound] | 25 | – | – | 80 | – | –
15 | Cn1cc(C(=O)Nc2ccccc2-c2ccc(F)cc2F)c(C(F)F)n1 [Compound 67.13] | 0 | 0 | – | 3 | – | 5
